Here are results for 18 molecules from patent publication US20070254881A1, “Pyrazole Derivative” (DAIICHI PHARMACEUTICAL CO., LTD., priority 2004, published 2007).

Structures are written as SMILES. pIC50: −log10 of the molar value. Where two headings read alike, the source gives them in different places.

For one experiment, the target named is T1, Cyclooxygenase-1 (COX-1) (Ovis aries, UniProt P05979).
T1 construct: purchased Cayman Chemical Company 560101
T1 sequence (P05979 25-600): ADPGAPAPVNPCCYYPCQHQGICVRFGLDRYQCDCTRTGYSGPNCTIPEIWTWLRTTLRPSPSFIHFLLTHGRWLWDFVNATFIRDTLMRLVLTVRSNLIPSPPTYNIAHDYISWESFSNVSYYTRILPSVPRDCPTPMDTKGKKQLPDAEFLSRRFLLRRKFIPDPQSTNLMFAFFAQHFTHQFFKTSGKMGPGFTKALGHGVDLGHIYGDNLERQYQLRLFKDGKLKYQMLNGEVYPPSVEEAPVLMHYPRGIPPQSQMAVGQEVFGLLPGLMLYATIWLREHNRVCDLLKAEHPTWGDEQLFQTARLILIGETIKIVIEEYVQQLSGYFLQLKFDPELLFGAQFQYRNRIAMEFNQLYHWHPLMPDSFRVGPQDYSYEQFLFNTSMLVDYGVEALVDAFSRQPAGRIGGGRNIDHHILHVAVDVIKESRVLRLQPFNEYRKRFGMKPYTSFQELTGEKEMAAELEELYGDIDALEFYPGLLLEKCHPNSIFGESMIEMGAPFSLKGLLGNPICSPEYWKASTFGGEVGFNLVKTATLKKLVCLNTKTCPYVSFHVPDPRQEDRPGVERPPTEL
Nature of the experiment: COX-1 inhibition, COX Inhibitor Screening Assay Kit (PGF2α production, ELISA). To be noted: compound 50 μM. It is filed as biochemical. The source says: (§1) For the measurement of the inhibitory activity of the compounds obtained in the Examples against COX-1 and COX-2, a COX Inhibitor Screening Assay Kit manufactured by Cayman Chemical Company (Catalog Nos. 560101 and 560121) was used.
(§2) Before starting the measurement, a reaction buffer, heme, arachidonic acid, SnCl2, EIA buffer, a washing buffer, prostaglandin (PG)-screening EIA standard solution, PG-screening acetylcholinesterase (AchE), a tracer […], and PG-screening EIA antiserum were provided.
A reaction solution containing a compound of the Examples (50 μM) and COX-1, or a reaction solution containing a compound of the Examples (300 μM) and COX-2 was allowed to stand at 37° C. for 10 minutes, then 10 μl of arachidonic acid was added thereto, and the resultant mixture was allowed to stand at 37° C. for 2 minutes. After the reaction, 50 μl of 1 N hydrochloric acid was added to the reaction mixture to stop the reaction, and 100 μl of a SnCl2 solution was added thereto. The resultant mixture was allowed to stand at room temperature for 5 minutes.
50 μl of antiserum (rabbit anti-PGF2α antibody) was added to each well of a 96-well plate coated with mouse anti-rabbit IgG. Then, 50 μl of a solution prepared by diluting the reaction solution for PGF2α production to 2000-folds, and 50 μl of an AchE tracer were added sequentially to the wells, and the plate was kept at room temperature for 18 hours. Each well washed 5 times with the washing buffer to remove excessive AchE tracer, and then 200 μl of Ellman reagent was added to each well. The plate was kept in the dark room for 60 minutes, and then, absorbance at 405 nm was measured.
A standard curve was produced using a PG-screening EIA standard solution, and the amount of PGF2α production was determined from the absorbance obtained as described above. The COX-1 inhibition rate at 50 μM of the compound of the Examples, and the COX-2 inhibition rate at 300 μM of the compound of the Examples were calculated.
(An ELISA detects its analyte on a solid surface through an enzyme-linked reagent.)

A further experiment has as its target T2, Cyclooxygenase-2 (COX-2) (Homo sapiens, UniProt P35354).
T2 construct: purchased Cayman Chemical Company 560121
T2 sequence (P35354 18-604): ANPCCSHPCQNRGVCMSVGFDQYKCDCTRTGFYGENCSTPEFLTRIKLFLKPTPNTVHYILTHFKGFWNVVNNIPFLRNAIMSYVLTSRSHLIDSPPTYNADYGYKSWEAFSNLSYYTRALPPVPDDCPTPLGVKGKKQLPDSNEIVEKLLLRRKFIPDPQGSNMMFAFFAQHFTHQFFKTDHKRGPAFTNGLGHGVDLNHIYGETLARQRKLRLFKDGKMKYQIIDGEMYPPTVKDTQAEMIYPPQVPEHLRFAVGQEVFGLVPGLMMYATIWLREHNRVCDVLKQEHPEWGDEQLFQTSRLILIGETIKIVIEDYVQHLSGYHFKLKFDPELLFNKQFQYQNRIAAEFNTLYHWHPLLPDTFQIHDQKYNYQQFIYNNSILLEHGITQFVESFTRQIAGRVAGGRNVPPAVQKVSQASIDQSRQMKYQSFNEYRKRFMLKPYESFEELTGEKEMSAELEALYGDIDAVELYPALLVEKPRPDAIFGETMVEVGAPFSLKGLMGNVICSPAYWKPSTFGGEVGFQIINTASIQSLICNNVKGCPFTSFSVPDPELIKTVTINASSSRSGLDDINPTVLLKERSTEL
Put plainly: COX-2 inhibition, COX Inhibitor Screening Assay Kit (PGF2α production, ELISA). Type of experiment: biochemical. To be noted: compound 300 μM.
From the text: as §1, §2
A reaction solution containing a compound of the Examples (50 μM) and COX-1, or a reaction solution containing a compound of the Examples (300 μM) and COX-2 was allowed to stand at 37° C. for 10 minutes, then 10 μl of arachidonic acid was added thereto, and the resultant mixture was allowed to stand at 37° C. for 2 minutes. […]
50 μl of antiserum (rabbit anti-PGF2α antibody) was added to each well of a 96-well plate coated with mouse anti-rabbit IgG. […] The plate was kept in the dark room for 60 minutes, and then, absorbance at 405 nm was measured.
A standard curve was produced using a PG-screening EIA standard solution, and the amount of PGF2α production was determined from the absorbance obtained as described above. […]

The subject of experiment [1] is collagen-induced platelet aggregation. Nature of the experiment: Platelet aggregation suppressing effect (collagen-induced aggregation in platelet rich plasma). It is filed as cell-based. To be noted: human PRP, 37° C., collagen as inducer, read-out: Inhibitory effect of collagen-induced platelet aggregation IC50. On the procedure:
Human blood was collected using 3.13% sodium citrate in a volume 1/10 of the blood volume, as an anticoagulant. The collected blood was centrifuged at 180 g for 10 minutes to separate platelet rich plasma (PRP) from the blood. After collecting the PRP fraction in the upper layer, the lower layer was further centrifuged at 1600 g for 10 minutes to fractionate platelet poor plasma (PPP) in the upper layer. One μl of a solution of a compound obtained in the Examples was added to 200 μl of PRP, and the mixture was allowed to stand at 37° C. for 2 minutes. Subsequently, 2 μl of collagen was added thereto, so as to induce platelet aggregation. The platelet aggregation rate was measured using PAM-12C(SSR Engineering, Inc.).

Experiment [2] has the same test system. The conditions noted are these: background art, cited from earlier work.

What is called pIC50 is −log10 of the IC50, conventionally taken in molar units. As for `COc1ccc(-n2nc(C(=O)N3CCOCC3)cc2-c2cnn(C)c2)cn1` [Example 115, 4-[1-(6-Methoxy-3-pyridyl)-5-(1-methyl-1H-pyrazol-4-yl)-1H-pyrazole-3-carbonyl]morpholine], the “COX-1 inhibitory action at 50 μM (% inhibition)” value on Cyclooxygenase-1 (COX-1) was −21.2 % inhibition. At Cyclooxygenase-2 (COX-2), the “COX-2 inhibitory action at 300 μM (% inhibition)” value worked out at 23.4 % inhibition. The negative-log IC50 (pIC50) in experiment [1] is 6.96.

Take `CS(=O)(=O)c1ccc(-c2cc(C#N)nn2-c2ccc(F)cc2)cc1` [compound (A)]: the pIC50 in experiment [2] (read-out: IC50 value against collagen-induced platelet aggregation) is 5.28.

Regarding `COc1ccc(-n2nc(C(=O)N3CCCCN3)cc2-c2ccccn2)nn1` [Example 5, 1-[1-(6-Methoxy-3-pyridazinyl)-5-(2-pyridyl)-1H-pyrazole-3-carbonyl]hexahydropyridazine], the “COX-1 inhibitory action at 50 μM (% inhibition)” value at Cyclooxygenase-1 (COX-1) is −35.9 % inhibition. In addition, the pIC50 in experiment [1] is 6.68.

In the case of `COc1ccc(-n2nc(C(=O)N3CCC(OC)CC3)cc2-c2cn(C)cn2)cn1` [Example 73, 1-[1-(6-Methoxy-3-pyridyl)-5-(1-methyl-1H-imidazol-4-yl)-1H-pyrazole-3-carbonyl]-4-methoxypiperidine], the “COX-1 inhibitory action at 50 μM (% inhibition)” value at Cyclooxygenase-1 (COX-1) was found to be 5.9 % inhibition. Further, the “COX-2 inhibitory action at 300 μM (% inhibition)” value on Cyclooxygenase-2 (COX-2) was 15.5 % inhibition. Also, the pIC50 in experiment [1] is 6.82.

Consider `Cc1ccc(-n2nc(C(=O)N3CCOCC3)cc2-c2ccn(C)c2)cn1` [Example 16, 4-[1-(6-Methyl-3-pyridyl)-5-(1-methyl-1H-pyrrol-3-yl)-1H-pyrazole-3-carbonyl]morpholine], for which the “COX-1 inhibitory action at 50 μM (% inhibition)” value at Cyclooxygenase-1 (COX-1) is −5.2 % inhibition. For the same molecule, the pIC50 in experiment [1] was 6.92.

Consider `COc1ccc(-c2cc(C(=O)N3CCC(OC)CC3)nn2-c2ccc(C)nc2)nc1` [Example 4, 1-[5-(5-Methoxy-2-pyridyl)-1-(6-methyl-3-pyridyl)-1H-pyrazole-3-carbonyl]-4-methoxypiperidine], for which the “COX-1 inhibitory action at 50 μM (% inhibition)” value at Cyclooxygenase-1 (COX-1) was −13.3 % inhibition. In addition, in experiment [1], the pIC50 was 6.68.

Turning to `COc1ccc(-n2nc(C(=O)N3CCC(OC)CC3)cc2-c2ccccn2)cn1` [Example 20, 1-[1-(6-Methoxy-3-pyridyl)-5-(2-pyridyl)-1H-pyrazole-3-carbonyl]-4-methoxypiperidine], the “COX-1 inhibitory action at 50 μM (% inhibition)” value at Cyclooxygenase-1 (COX-1) is −17.0 % inhibition. Also, the pIC50 in experiment [1] is 6.92.

As to `COc1ccc(-n2nc(C(=O)N3CCC[C@H]3CF)cc2-c2ccccn2)nn1` [Example 31, (2S)-1-[1-(6-Methoxy-3-pyridazinyl)-5-(2-pyridyl)-1H-pyrazole-3-carbonyl]-2-fluoromethylpyrrolidine], the “COX-1 inhibitory action at 50 μM (% inhibition)” value at Cyclooxygenase-1 (COX-1) is −10.5 % inhibition. Besides, the pIC50 in experiment [1] was 6.74.

For the molecule `COc1ccc(-n2nc(C(=O)N3CCN(C)C(=O)C3)cc2-c2ccn(C)c2)nn1` [Example 124, 1-[1-(6-Methoxy-3-pyridazinyl)-5-(1-methyl-1H-pyrrol-3-yl)-1H-pyrazole-3-carbonyl]-4-methyl-3-oxopiperazine], the “COX-1 inhibitory action at 50 μM (% inhibition)” value at Cyclooxygenase-1 (COX-1) is reported as 8.3 % inhibition. The pIC50 in experiment [1] is 6.36.

For `COc1ccc(-n2nc(C(=O)N3CCN(C)C(=O)C3)cc2-n2cccc2)cn1` [Example 10, 1-[1-(6-Methoxy-3-pyridyl)-5-(1H-pyrrol-1-yl)-1H-pyrazole-3-carbonyl]-4-methyl-3-oxopiperazine], the “COX-1 inhibitory action at 50 μM (% inhibition)” value at Cyclooxygenase-1 (COX-1) amounted to 54.1 % inhibition. Besides, the pIC50 in experiment [1] was 6.72.

On to `COc1ccc(-n2nc(C(=O)N3CCN(C)C(=O)C3)cc2-c2ccn(C)n2)cn1` [Example 36, 1-[1-(6-Methoxy-3-pyridyl)-5 (1-methyl-1H-pyrazol-3-yl)-1H-pyrazole-3-carbonyl]-4-methyl-3-oxopiperazine], for which the “COX-1 inhibitory action at 50 μM (% inhibition)” value on Cyclooxygenase-1 (COX-1) amounted to 1.2 % inhibition. The negative logarithm of the IC50 (pIC50) in experiment [1] is 6.43.

Regarding `COc1ccc(-n2nc(C(=O)N3CCN(C)CC3)cc2-c2cscn2)cn1` [Example 127, 1-[1-(6-Methoxy-3-pyridyl)-5-(thiazol-4-yl)-1H-pyrazole-3-carbonyl]-4-methylpiperazine], the “COX-1 inhibitory action at 50 μM (% inhibition)” value at Cyclooxygenase-1 (COX-1) was −21.2 % inhibition. Besides, in experiment [1], the pIC50 is 6.64.

Take `COc1ccc(-n2nc(C(=O)N3CCN(C)CC3)cc2-c2ccc[nH]2)nn1` [Example 12, 1-[1-(6-Methoxy-3-pyridazinyl)-5-(1H-pyrrol-2-yl)-1H-pyrazole-3-carbonyl]-4-methylpiperazine]: the “COX-1 inhibitory action at 50 μM (% inhibition)” value at Cyclooxygenase-1 (COX-1) is 25.9 % inhibition. Moreover, in experiment [1], the pIC50 was 6.49.

Turning to `COc1ccc(-n2nc(C(=O)N3CCC(OC)CC3)cc2-c2ccc[nH]2)nn1` [Example 14, 1-[1-(6-Methoxy-3-pyridazinyl)-5-(1H-pyrrol-2-yl)-1H-pyrazole-3-carbonyl]-4-methoxypiperidine], the “COX-1 inhibitory action at 50 μM (% inhibition)” value on Cyclooxygenase-1 (COX-1) is 39.3 % inhibition. In addition, in experiment [1], the pIC50 is 6.92.

For `COc1ccc(-c2cc(C(F)F)nn2-c2ccc(S(N)(=O)=O)cc2)cc1F` [compound (B)], the “platelet aggregation inhibitory action compared with inhibitory activity against COX-2” value in experiment [2] is recorded as “not as strong as the inhibitory activity of the compound against COX-2”.

In the case of `COc1ccc(-n2nc(C(=O)N3CCCC(OC)C3)cc2-c2ccccn2)cn1` (stereo not drawn) [Example 34, 1-[1-(6-Methoxy-3-pyridyl)-5-(2-pyridyl)-1H-pyrazole-3-carbonyl]-3-methoxypiperidine], the “COX-1 inhibitory action at 50 μM (% inhibition)” value at Cyclooxygenase-1 (COX-1) was −18.4 % inhibition. In addition, the pIC50 in experiment [1] is 7.20.

For the molecule `COc1ccc(-n2nc(C(=O)N3CCOC[C@@H]3C)cc2-c2ccccn2)nn1` [Example 105, (+)(3S)-4-[1-(6-Methoxypyridazin-3-yl)-5-(2-pyridyl)-1H-pyrazole-3-carbonyl]-3-methylmorpholine], the “COX-1 inhibitory action at 50 μM (% inhibition)” value on Cyclooxygenase-1 (COX-1) is on record as −9.6 % inhibition. Besides, in experiment [1], the pIC50 is 6.36.

For `COc1ccc(-c2cc(C(=O)N3CCOCC3)nn2-c2ccc(C)nc2)nc1` [Example 1, 4-[5-(5-Methoxy-2-pyridyl)-1-(6-methyl-3-pyridyl)-1H-pyrazole-3-carbonyl]morpholine], at Cyclooxygenase-1 (COX-1), the “COX-1 inhibitory action at 50 μM (% inhibition)” value was −13.3 % inhibition. In addition, the pIC50 in experiment [1] was 6.68.
